Test results from patent publication US20150024008A1, “Methods and Compositions Involving Induced Senescent Cells for Cancer Treatment” (THE UNIVERSITY OF CHICAGO, priority 2011, published 2015).

Tests used:
[1] = test system: 22Rv1 (human) prostate carcinoma cells; experiment: Flow cytometric detection of SA-βGal with DDAO-G; type: cell-based
Protocol: Prostate carcinoma (PCa) cell lines included 22Rv1 (human) and TRAMP-C2 (murine, ATCC). PCa cell lines were propagated in complete culture medium using sterile culture flasks in a humidified, 5% CO2 incubator at 37° C. For 22Rv1 human PCa cells, complete media consisted of RPMI-1640 1× (modified without L-glutamine, Invitrogen) supplemented with fetal bovine serum (FBS, 10%, Gemini Biosciences), stabilized L-glutamine (2 mM, Gemini Biosciences), and penicillin-streptomycin solution (100 U/ml penicillin, 100 μg/ml streptomycin, Invitrogen). For TRAMP-C2 murine PCa cells, complete medium consisted of DMEM (modified with 4.5 g/l glucose and without L-glutamine, Invitrogen) supplemented with FBS (5%), Nu-Serum IV (5%, BD Biosciences), stabilized L-glutamine (4 mM), dehydroisoandrosterone (10 nM, Sigma-Aldrich), bovine insulin (5 μg/ml, Sigma-Aldrich), and penicillin-streptomycin solution (100 U/ml penicillin, 100 μg/ml streptomycin).
Cells were plated at low density (˜25×10^3 cells/cm^2) and incubated overnight to allow adherence to culture surfaces. The following day, PARP inhibitor veliparib (ABT-888, 10 μM in DMSO, ChemieTek) was added (or not) to freshly changed media to enhance uptake of the compound. Cells were incubated with veliparib for 60 minutes at 37° C. in 5% CO2 prior to gamma irradiation (IR, 6 Gy). Treated and untreated cells were then incubated undisturbed for 5 days to allow senescence to proceed.
Cells were pelleted by centrifugation for 5 minutes at 1000×g, supernatant removed, and pellet resuspended in 1% bovine serum albumin (BSA, United States Biological) in DPBS. Cell suspensions were counted (cells/mL) using a handheld counting device (Scepter, Millipore). […]
Analysis of SA-βGal signal was conducted by flow cytometry, using an LSRII cytometer (Becton Dickinson) equipped with a 633 nm red diode laser and a 670/30 (APC) bandpass filter suitable for DDAO red fluorescent signal excitation and emission detection. […] Single, whole cells were then visualized on a red-fluorescence vs SSC-A plot in order to define senescent SA-βGal^+ SSC^high cells. […]

B16 tumors = experiment: Flow cytometry of tumor infiltrating lymphocytes from B16 tumors; type: in vivo, mouse; conditions: veliparib+IR
Protocol: (§1) Mouse melanoma cell line B16SIY (5×10^5 cells) were implanted subcutaneously in the flank of 6 to 8-wk-old C57/B6 mice. Tumors were allowed to grow until they reached a volume of about 100 to 150 mm^3 (approximately 2 wk) before treatment with PARP inhibitor veliparib (vrib, (R)-2-(2-methylpyrrolidin-2-yl)-1H-benzo[d]imidazole-4-carboxamide, ABT-888) and/or IR (Dunn 2006). Mice received 0.5 mg of veliparib in water twice daily by oral gavage as indicated. CD8^+, CD4^+, NK cells were depleted by anti-CD8 or anti-CD4 or anti-NK1.1, respectively, 1 d before IR. Depletion was confirmed by checking peripheral blood samples by flow cytometry. Macrophages were depleted with liposomal clodronate starting 1 d before IR. Depletion was confirmed by checking splenocyte and tumor samples by flow cytometry (Zhang 2008). Samples were collected 2 to 7 days later, and analyzed by flow cytometry using a BD LSRII flow cytometer. Blood samples were gated in forward scatter and side scatter on smaller cells for CD8, CD4 analysis, larger cells for NK and macrophage, and the percentage of different cell types were determined (Lugade 2008, Zhang 2010).

[2] = test system: B16SIY murine melanoma tumors; experiment: B16SIY tumor growth after veliparib and IR; type: in vivo, mouse; conditions: veliparib 0.5 mg twice daily oral + 6 or 12 Gy IR vs IR alone; C57/B6 mice
Protocol: as §1

[3] = veliparib+IR cells, FSC vs. SSC

Compound: C[C@]1(c2nc3c(C(N)=O)cccc3[nH]2)CCCN1 [veliparib, (R)-2-(2-methylpyrrolidin-2-yl)-1H-benzo[d]imidazole-4-carboxamide]
- B-Gal high cells within the region shown by the black rectangle [1, 3]: 41%
- B-Gal- or B-Gal low cells within the region shown by the black rectangle [1, 3]: 59%
- cells in senescent gate (B-Gal vs. SSC) ([1]; veliparib+IR treated viable cells): 20%
- NK cells in tumors (B16 tumors): more abundant
- proportion of IFNγ-producing CD8+ cells among tumor infiltrating lymphocytes (B16 tumors): 29%
- tumor regrowth [2]: markedly delayed tumor regrowth
